Assay results reported in paper PMC6063448, “Antimicrobial activity of linear lipopeptides derived from BP100 towards plant pathogens” (PLoS ONE, 2018).

Key:
[1] = system: defense-related genes in tomato plants; assay: Induction of defense gene expression of tomato plants (RT-qPCR); assay type: in vivo, tomato cv. Rio Grande; details: for BCB gene expression, fold induction / ERT3 gene expression, fold induction / GluA gene expression, fold induction / Harp gene expression, fold induction / LOX gene expression, fold induction / Osm2 gene expression, fold induction / PPO gene expression, fold induction / PR1 gene expression, fold induction / Sub1 gene expression, fold induction / Tas14 gene expression, fold induction / PinII gene expression, fold induction: tomato leaves sprayed, 24 h, peptides and flg15 125 μM, JA 2.5 mM, ASM 300 mg/L, ΔΔCt relative to actin, above 2 = overexpression; for Defense gene expression in tomato plants (genes overexpressed) / Number of defense-related genes significantly induced: treatment at 125 μM; for Defense gene expression in tomato plants (genes overexpressed): significant overexpression (REST2009)
Description: Seeds of tomato cv. Rio Grande plants were sown in hydroponic seed plugs (rockwool), germinated and grown under controlled greenhouse conditions (25 ± 2°C, 16 h light / 15 ± 2°C, 8 h dark, and 60% RH). Two-week old seedlings (two cotyledons) were transplanted into rockwool plugs (7.5×7.5×6.5 cm, Grodan Iberica). The experimental design consisted of three replicates of three plants per treatment. After two weeks, tomato leaves were sprayed with aqueous solutions of BP100, 9 selected derivatives and flg15 at 125 μM, jasmonic acid at 2.5 mM (Sigma-Aldrich, Sant Louis, Missouri, UE), and acybenzolar-S-methyl at 300 mg/L (Syngenta, Basel, Switzerland), until the run-off point. Water-sprayed plants were used as not treated controls. Twenty-four hours after product application leaf samples were collected and processed to extract RNA for RT-qPCR assays. Plant material was ground to a fine powder in liquid nitrogen with the Tissuelyzer II system (Qiagen). Total RNA was extracted from leaves using PureLink Plant RNA Reagent (Invitrogen, Life Technologies) according to the manufacturer’s manual. The RNA was solubilized in RNAse free water and was routinely subjected to DNAse treatment (Ambion® Turbo DNA-free™, Life Technologies) to remove any contaminant DNA. In each step, the RNA was quantified using a Nanodrop N-2000 spectrophotometer, and its integrity verified by denaturing agarose gel electrophoresis. First-strand of complementary DNA (cDNA) was generated from leave RNA using reverse transcriptase (High Capacity cDNA Reverse Transcription Kit, Invitrogen) according to the manufacturer’s manual.
To test gene defense induction in the treated tomato plants, a qPCR assay was performed. Quantitative PCR was carried out in a fluorometric thermal cycler (qPCR Quant Studio 5, Applied Biosystems) by using a Mix SYBR®Green PCR Master Mix (Applied Biosystems). The total reaction volume of this PCR reaction was 20 μL and the reaction mixture was 1 μL of each primer set at the adequate concentration, 10 μL of MixSyber Green, 6 μL of distilled water and 2 μL of cDNA. Melting curve analysis was performed after amplification to verify amplification specificity. A constitutive gene (actin gene) was used as reference control, and the following genes implicated in plant defense response were analyzed: Pathogenesis-related protein-1 (PR1), Harpin (Harp), Polyphenol oxidase (PPO), Subtilisin-like protease (Sub1), Blue copper binding-protein (BCB), Osmotin (Osm2), Acidic β-1,3 endoglucanase (GluA), Lypoxigenase (LOX), Protein inhibitor II (PinII), Dehydrin (Tas14) and Ethylene response transcription factor (ERT3). […] For each gene system, the concentration of the primer pair was optimized. The primer concentration was 100 nM for all the genes except for the GluA, Harp, PR1 and actin genes which optimized concentration was 300 nM. A calibration curve was prepared by cloning the corresponding DNA in the pSpark cloning vector (Canvax, Córdoba, Spain) according to the manufacturer instructions, which was then used to transform E. coli DH5α by standard procedures. The number of plasmid copies were quantified after purification from E. coli (QIAGEN Iberia, S. L., Madrid, Spain), and appropriate dilutions were prepared to obtain the standard curve. […] Relative quantification of gene expression was done using the ΔΔCt method. Each biological repetition treatment was analyzed in duplicate. The mean of the Ct values obtained were used to estimate the fold change value of the endogenous reference gene (actin) and the target plant defense genes.

[2] = system: Fusarium oxysporum f. sp. lycopersici FOL 3 race 2; assay: MIC, antifungal growth inhibition in microtiter plates (PDB); assay type: cell-based; details: Fo, 22°C, seven days, OD 600 nm, lowest concentration with no growth, given as interval of tested concentrations, three replicates, experiment repeated twice
In short: (§1)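 Conidial suspensions (10^3 conidia/mL P. expansum, 10^4 F. oxysporum) incubated with peptides in PDB with 0.003% chloramphenicol at 22 °C for seven days, OD600 read every 2 h. MIC is the lowest concentration with no growth at the end; triplicates, experiment repeated twice.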

[3] = system: Penicillium expansum EPS26; assay: as above; assay type: cell-based; details: Pe, 22°C, seven days, OD 600 nm, lowest concentration with no growth, given as interval of tested concentrations, three replicates, experiment repeated twice
In short: as §1

Row | Compound | BCB gene expression, fold induction [1] | ERT3 gene expression, fold induction [1] | GluA gene expression, fold induction [1] | Harp gene expression, fold induction [1] | LOX gene expression, fold induction [1] | Osm2 gene expression, fold induction [1] | PPO gene expression, fold induction [1] | PR1 gene expression, fold induction [1] | Sub1 gene expression, fold induction [1] | Tas14 gene expression, fold induction [1] | Defense gene expression in tomato plants (genes overexpressed) [1] | MIC [2] [µM] | MIC [3] [µM] | PinII gene expression, fold induction [1] | Number of defense-related genes significantly induced [1]
1 | CCCC(=O)NCCCC[C@H](NC(=O)[C@@H](NC(=O)[C@H](CCCCN)NC(=O)[C@H](CCCCN)NC(=O)[C@H](Cc1ccccc1)NC(=O)[C@H](CC(C)C)NC(=O)[C@H](CCCCN)NC(=O)[C@H](CCCCN)NC(C)=O)[C@@H](C)CC)C(=O)N[C@@H](CCCCN)C(=O)N[C@@H](Cc1ccc(O)cc1)C(=O)N[C@@H](CC(C)C)C(N)=O [BP387, Ac-KKLFKKIK(COC3H7)KYL-NH2] | 1.7 | 0.2 | 0.7 | 1.2 | 0.7 | 1.0 | 1.3 | 0.4 | 0.8 | 1.0 | none | 0.8 to 1.6 | 6.2 to 12.5 |  | 
2 | CCCCCC(=O)NCCCC[C@H](NC(=O)[C@H](CC(C)C)NC(=O)[C@H](CCCCN)NC(=O)[C@H](CCCCN)NC(C)=O)C(=O)N[C@@H](CCCCN)C(=O)N[C@@H](CCCCN)C(=O)N[C@H](C(=O)N[C@@H](CC(C)C)C(=O)N[C@@H](CCCCN)C(=O)N[C@@H](Cc1ccc(O)cc1)C(=O)N[C@@H](CC(C)C)C(N)=O)[C@@H](C)CC [BP371, Ac-KKLK(COC5H11)KKILKYL-NH2] | 1.0 | 0.9 | 0.5 | 0.9 | 1.1 | 0.9 | 0.6 | 0.7 | 0.8 | 0.7 |  | 0.8 to 1.6 | 3.1 to 6.2 | 1.7 | 
3 | CCCCCC(=O)NCCCC[C@H](NC(=O)[C@H](CCCCN)NC(=O)[C@H](CCCCN)NC(=O)[C@H](Cc1ccccc1)NC(=O)[C@H](CC(C)C)NC(=O)[C@H](CCCCN)NC(=O)[C@H](CCCCN)NC(C)=O)C(=O)N[C@@H](CC(C)C)C(=O)N[C@@H](CCCCN)C(=O)N[C@@H](Cc1ccc(O)cc1)C(=O)N[C@@H](CC(C)C)C(N)=O [BP374, Ac-KKLFKKK(COC5H11)LKYL-NH2] | 1.0 | 2.0 | 0.5 | 0.9 | 1.9 | 1.6 | 0.7 | 0.5 | 0.8 | 1.2 |  | 0.8 to 1.6 | >25 | 1.7 | 
4 | CCCC(=O)NCCCC[C@H](NC(=O)[C@H](CCCCN)NC(=O)[C@H](CC(C)C)NC(=O)[C@@H](NC(=O)[C@H](CCCCN)NC(=O)[C@H](CCCCN)NC(=O)[C@H](Cc1ccccc1)NC(=O)[C@H](CC(C)C)NC(=O)[C@H](CCCCN)NC(=O)[C@H](CCCCN)NC(C)=O)[C@@H](C)CC)C(=O)N[C@@H](CC(C)C)C(N)=O [BP389, Ac-KKLFKKILKK(COC3H7)L-NH2] | 2.1 | 0.1 | 0.3 | 0.9 | 1.2 | 1.0 | 0.5 | 0.3 | 0.5 | 0.7 | PinII and BCB | 1.6 to 3.1 | 6.2 to 12.5 | 2.8 | 2
5 | CCCC(=O)NCCCC[C@H](NC(=O)[C@H](CCCCN)NC(=O)[C@H](Cc1ccccc1)NC(=O)[C@H](CC(C)C)NC(=O)[C@H](CCCCN)NC(=O)[C@H](CCCCN)NC(C)=O)C(=O)N[C@H](C(=O)N[C@@H](CC(C)C)C(=O)N[C@@H](CCCCN)C(=O)N[C@@H](Cc1ccc(O)cc1)C(=O)N[C@@H](CC(C)C)C(N)=O)[C@@H](C)CC [BP385, Ac-KKLFKK(COC3H7)ILKYL-NH2] | 4.2 | 0.2 | 0.7 | 2.3 | 1.1 | 1.2 | 1.7 | 3.2 | 1.0 | 0.7 | one gene (Osm2, Tas14 or BCB) | 1.6 to 3.1 | 6.2 to 12.5 | 7.1 | 
6 | CCCC(=O)NCCCC[C@H](NC(=O)[C@H](CCCCN)NC(C)=O)C(=O)N[C@@H](CC(C)C)C(=O)N[C@@H](Cc1ccccc1)C(=O)N[C@@H](CCCCN)C(=O)N[C@@H](CCCCN)C(=O)N[C@H](C(=O)N[C@@H](CC(C)C)C(=O)N[C@@H](CCCCN)C(=O)N[C@@H](Cc1ccc(O)cc1)C(=O)N[C@@H](CC(C)C)C(N)=O)[C@@H](C)CC [BP381, Ac-KK(COC3H7)LFKKILKYL-NH2] | 1.2 | 0.7 | 0.6 | 0.7 | 0.8 | 2.1 | 1.3 | 0.2 | 0.5 | 3.4 | one gene (Osm2, Tas14 or BCB) and Osm2 | 0.8 to 1.6 | 1.6 to 3.1 | 0.4 | 
7 | CCCCCC(=O)NCCCC[C@H](NC(=O)[C@H](Cc1ccc(O)cc1)NC(=O)[C@H](CCCCN)NC(=O)[C@H](CC(C)C)NC(=O)[C@@H](NC(=O)[C@H](CCCCN)NC(=O)[C@H](CCCCN)NC(=O)[C@H](Cc1ccccc1)NC(=O)[C@H](CC(C)C)NC(=O)[C@H](CCCCN)NC(=O)[C@H](CCCCN)NC(C)=O)[C@@H](C)CC)C(N)=O [BP378, Ac-KKLFKKILKYK(COC5H11)-NH2] | 1.3 | 1.0 | 0.6 | 1.2 | 1.5 | 2.9 | 1.7 | 2.0 | 0.9 | 3.5 | PinII, Osm2 and Tas14 | 0.8 to 1.6 | 3.1 to 6.2 | 5.8 | 3
